PMC10079573 (The journal of pain, 2022)

Key:
in vitro [1] = assay type: in vitro ADME; conditions: human; for fraction unbound at 4 h, 5 µM: plasma
Description: (§1) The objective of this study was to evaluate protein binding test compounds in human and mice plasma. This was accomplished by spiking the test compounds at a concentration of 5 µM into human and mice plasma and dialyzing against buffer until equilibrium is achieved (4 hours). Analyte area ratios of the test compounds in plasma and buffer were determined to calculate unbound and bound percentages of compound to the plasma proteins.
(§2) Compound concentration : 5 µM
(§3) Rapid equilibrium dialysis was performed with a rapid equilibrium dialysis (RED) device containing dialysis membrane with a molecular weight cut-off of 8,000 Daltons. Each dialysis insert contains two chambers. The red chamber is for plasma while the white chamber is for buffer.
(§4) After sealing the RED device with an adhesive film, dialysis was performed in incubator at 37 °C with shaking at 100 RPM for 4 hours.
(§5) Two aliquots were frozen immediately (0 minute sample). The other two aliquots were incubated at 37 °C for 4 hours along with the RED device.
(§6) Following dialysis, an aliquot of 50 µL was removed from each well (both plasma and buffer side) and diluted with equal volume of opposite matrix (dialyzed with the other matrix) to nullify the matrix effect. Similarly, 50 µL of buffer was added to recovery and stability samples. An aliquot of 100 µL was submitted for LC-MS/MS analysis.
(§7) The peak area ratios (analyte versus internal standard) obtained was used to determine the fraction of compound bound to plasma proteins. The following equation was used to determine the extent of plasma protein binding:
(§8) Percent free drug = 100 x (peak area ratio in dialysate buffer)
(§9) Percent bound drug = 100 - % free drug
(§10) Recovery (%): 100 x (response plasma + response buffer) after dialysis / (response plasma) incubated at 37 °C in tubes along with RED device.
(§11) Stability (%):100 x (response plasma) incubated at 37 °C in tubes along with RED device / (response plasma) samples frozen at 0 min

in vitro [2] = assay type: in vitro ADME, mice; conditions: mouse; for fraction unbound at 4 h, 5 µM: plasma
Description: as §1, §2, §3, §4, §5, §6, §7, §8, §9, §10, §11

PAR2 = molecular target: T1, PAR2 (Mus musculus, UniProt P55086); test: Local intraplantar coinjection of C781 with PAR2 agonist 2AT: von Frey, Mouse Grimace Scale, hyperalgesic priming (PGE2); assay type: in vivo, C57BL6 mice; conditions: 2AT 20.9 ng intraplantar
T1 construct: from tissue; host or cells: living C57BL6 mice (hind paw / nociceptors)
T1 sequence (P55086 26-399): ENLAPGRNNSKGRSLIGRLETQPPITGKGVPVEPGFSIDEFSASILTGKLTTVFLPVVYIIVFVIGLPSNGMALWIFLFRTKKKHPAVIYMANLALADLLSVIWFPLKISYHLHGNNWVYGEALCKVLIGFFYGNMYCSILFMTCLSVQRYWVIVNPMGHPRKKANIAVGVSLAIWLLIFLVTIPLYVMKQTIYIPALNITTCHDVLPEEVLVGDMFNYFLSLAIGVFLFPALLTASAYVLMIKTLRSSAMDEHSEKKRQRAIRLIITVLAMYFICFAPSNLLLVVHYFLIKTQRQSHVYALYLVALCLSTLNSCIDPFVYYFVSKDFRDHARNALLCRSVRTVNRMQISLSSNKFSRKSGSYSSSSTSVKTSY
Description: Experimenters were blinded to treatment groups in all experiments. Animals were habituated to suspended acrylic chambers with each individual chamber measuring 11.4 × 7.6 × 7.6 cm and a wire mesh bottom (1 cm^2). Mechanical hypersensitivity was assessed using the manual von Frey hair test after spontaneous pain assessment using the Mouse Grimace Scale (MGS). This was done to assure that grimacing responses were not a result of mechanical stimulation.
MGS were determined using the MGS test as described by Langford and colleagues.[37] After habituation, the experimenter observed the mice and assigned intensity ratings (0 = not present, 1 = moderately present, 2 = severe) to the facial action units relative to baseline. The 5 action units identified are 1) orbital tightening, 2) nose bulge, 3) cheek bulge, 4) ear position, and 5) whisker change. The scores for all 5 action units are averaged to obtain the MGS score for each time point.
Hind paw withdrawal thresholds were calculated via the Dixon up-down method after applying calibrated von Frey filaments from Stoelting, Co. (cat# 58011) to the volar surface of the left hind paw.[12] […] The maximum filament weight used was 2 g.
Hyperalgesic priming was determined after allowing animals to return to baseline levels and injecting the previously injected paw with 100 ng of PGE2 (Cayman Chemical, Ann Arbor, MI). […]

| recovery at 4 h, 5 µM (in vitro [1]; pH 7.4) [%] | fraction unbound at 4 h, 5 µM (in vitro [1]; pH 7.4, % Bound Mean ± SD) | fraction unbound at 4 h, 5 µM (in vitro [1]; pH 7.4, % Bound R1) | fraction unbound at 4 h, 5 µM (in vitro [1]; pH 7.4, % Bound R2) | fraction unbound at 4 h, 5 µM (in vitro [1]; pH 7.4, % Bound R3) | recovery at 4 h, 5 µM (in vitro [2]; pH 7.4) [%] | fraction unbound at 4 h, 5 µM (in vitro [2]; pH 7.4, % Bound Mean ± SD) | fraction unbound at 4 h, 5 µM (in vitro [2]; pH 7.4, % Bound R1) | fraction unbound at 4 h, 5 µM (in vitro [2]; pH 7.4, % Bound R2) | fraction unbound at 4 h, 5 µM (in vitro [2]; pH 7.4, % Bound R3) | Compound | Nociceptive behaviors evoked by agonist (mechanical hypersensitivity, facial grimacing) (PAR2) | Hyperalgesic priming by agonist (response to PGE2) (PAR2; then PGE2 100 ng intraplantar) |
| --- | --- | --- | --- | --- | --- | --- | --- | --- | --- | --- | --- | --- |
| 97 | 0.011 | 0.012 | 0.01 | 0.011 | 94 | 0.061 | 0.058 | 0.057 | 0.07 | CC(=O)CC(c1ccccc1)c1c(O)c2ccccc2oc1=O (stereo not drawn) [Warfarin] | – | – |
| – | – | – | – | – | – | – | – | – | – | 2-aminothiazo-4-yl-LIGRL-NH2 [Compound 2AT] | caused both mechanical hypersensitivity and facial grimacing | primed and exhibited mechanical allodynia and facial grimacing in response to PGE2 |
